From patent publication US20240415808A1, “Dosage Regimen for Fexuprazan Injection Composition” (Daewoong Pharmaceutical Co., Ltd., priority 2021, published 2024)
Where “and” joins values, the source holds several entries; their conditions need not be identical. Equal values may be shown once.

Experiments:
[1] = pharmacokinetic experiment in male rats (oral and tail vein); assay type: in vivo, rat
Experimental: Methylcellulose was dissolved in physiological saline to prepare a solution containing methylcellulose at a concentration of 0.5 wt %, and then the previously prepared fexuprazan hydrochloride was added thereto to prepare a composition with Fexuprazan at a concentration of 1 mg/mL. The composition prepared above was orally administered to male rats at a dose of 2 mg/kg in a liquid volume of 2 mL/kg depending on the body weight of the individual, and then blood was collected using an orbital blood collection method at 0.25, 0.5, 1, 2, 4, 6, 8, and 24 hours, and centrifuged at 10,000 rpm for 5 minutes. Plasma was collected, analyzed by HPLC-MS/MS, and pharmacokinetic parameters were calculated.
Then, methylcellulose was dissolved in physiological saline to prepare a solution containing methylcellulose at a concentration of 0.5 wt,%, and then the previously prepared fexuprazan hydrochloride was added thereto to prepare a composition with fexuprazan at a concentration of 1 mg/mL. The composition was administered through the tail vein in male rats at a dose of 1 mg/kg in a liquid volume of 1 mL/kg depending on the body weight of the individual. Blood was collected by the same method as in oral administration at 0.083, 0.25, 0.5, 1, 2, 4, 6, 8, and 24 hours, and then analyzed.

[2] = 4-week repeated intravenous toxicity test, beagle dog; assay type: in vivo
Experimental: The previously prepared fexuprazan hydrochloride was dissolved in a solution containing 30 wt. % of polyethylene glycol (Polyethylene Glycol 400) polymer in physiological saline, and the concentration was calculated based on fexuprazan weight so that it could be administered at a liquid volume of 5 mL/kg for rats and 2 mL/kg for beagle dogs to prepare each composition. Toxicity was evaluated by intravenously administering at doses of 0, 2.5, 5, and 10 mg/kg/day to rats and beagle dogs, respectively, once a day for 4 weeks.

[3] = tested on: acidity (pH) in the gastrointestinal tract; test: single intravenous dose-escalation clinical trial, acidity (pH) in the gastrointestinal tract; assay type: in vivo, human; conditions: healthy adults; for Fraction time pH ≥ 4 (%) / Fraction time pH ≥ 6 (%): 24 hours after medication
Experimental: In order to confirm the safety/PK/PD of the compound of the present invention during intravenous administration, the clinical trial was designed with random assignment, double-blind, placebo-controlled, single dose, and stepwise dose-escalation in healthy adults (Korean/Chinese) between the ages of 19 and 50.
A stabilizer (200 mg), a freeze-drying auxiliary agent (200 mg), and the previously prepared fexuprazan hydrochloride (40 mg based on fexuprazan weight) were dissolved in water for injection (4 mL), and an appropriate amount of acid was added thereto to adjust the pH to 4.0. The prepared solution was put into a vial, dried by a freeze-drying method, and prepared as a freeze-drying agent.
The freeze-dried composition prepared as above was used, but a total of 28 subjects of 4, 8, 8, and 8 subjects each were enrolled for four dose groups (10 mg, 20 mg, 40 mg, and 80 mg) based on fexuprazan weight, and each group was randomly assigned to test or control groups in the order that they passed the screening criteria at a ratio of 3:1. All test subjects completed safety, pharmacokinetic, and pharmacodynamic evaluations according to the planned clinical trial schedule.
The medication was performed in the morning, and the patient was discharged from the hospital on the third day of medication. Subsequently, a close-out visit was performed between the 8th and 11th day of medication.
(§1) Testing of the acidity (pH) in the gastrointestinal tract and gastric secretion promoting hormone gastrin were performed from 24 hours before medication to 24 hours after medication. Blood collection for pharmacokinetics and urine collection for pharmacokinetics were performed for 48 hours from the time of medication.

[4] = oral vs intravenous two-way crossover clinical trial, pharmacokinetics / bioavailability; assay type: in vivo; conditions: human, blood, healthy adults; for Cmax: n 8
From the text: Therefore, in order to compare the safety/PK/PD of the compound of the present invention during single intravenous administration and during single oral administration and derive the bioavailability, the clinical trial was designed as a randomized, open-label, single-dose, two-period, two-way crossover trial in healthy adults. The selection/exclusion criteria were the same as in Experimental Example 4. A total of 8 subjects were enrolled, and four subjects each were randomly assigned to sequence group 1 or sequence group 2 in the order in which they passed the screening criteria. All test subjects completed safety, pharmacokinetic, and pharmacodynamic evaluations according to the planned clinical trial schedule.
A screening visit was performed 3 to 28 days before the start of the clinical trial, and hospital admission was performed 2 days before medication. The first phase medication was performed according to the order group randomly assigned on the morning of the day. A stabilizer (200 mg), a freeze-drying auxiliary agent (200 mg), and the previously prepared fexuprazan hydrochloride (40 mg based fexuprazan weight) were dissolved in water for injection (4 mL), an appropriate amount of acid was added thereto. A composition whose pH was adjusted to 4.0 was administered intravenously, or an excipient (100 mg), a disintegrant (5 mg), and the previously prepared fexuprazan hydrochloride (40 mg based on fexuprazan weight) were mixed and compressed to prepare a tablet, which were administered orally. The hospital discharge was performed on the third day of medication. The second phase medication was performed on the morning of the 8th after hospital admission on the 6th day after the first phase medication. Hospital discharge was performed on the 10th day of medication. Subsequently, a close-out visit was performed between 15 and 18 days after medication (FIG. 6).
as §1

[5] = intravenous administration (40 mg)

Molecule CNCc1cn(S(=O)(=O)c2cccc(F)c2)c(-c2ccc(F)cc2F)c1OC [Fexuprazan, 1-(5-(2,4-difluorophenyl)-1-((3-fluorophenyl)sulfonyl)-4-methoxy-1H-pyrrol-3-yl)-N-methylmethanamine] has a BA ([1]; PO 2 mg/kg vs IV 1 mg/kg) of 24.7%, an AUC(0-t) ([1]; rat, plasma, IV 1 mg/kg) of 143 ± 38 ng·h/mL and a Vd ([1]; rat, plasma, IV 1 mg/kg) of 20.2 ± 5.2 L/kg. The clearance ([1]; rat, plasma, IV 1 mg/kg) was 114 ± 29 mL/min/kg, the half-life ([1]; rat, plasma, IV 1 mg/kg) was 2.06 ± 0.25 h and the AUC(0-t) ([1]; rat, plasma, PO 2 mg/kg) was 70.9 ± 22.4 ng·h/mL. It also gave a Cmax ([1]; rat, plasma, PO 2 mg/kg) of 23.8 ± 10.7 ng/mL, a Tmax ([1]; rat, plasma, PO 2 mg/kg) of 0.833 ± 0.289 h and a half-life ([1]; rat, plasma, PO 2 mg/kg) of 1.74 ± 0.16 h. For the same molecule, the “Result: harmless dose” value ([2]; Beagle dog, 4 weeks, intravenous, doses 0, 2.5, 5, 10) was “harmless dose 10 mg/kg”, the “toxic symptoms due to the test substance” value ([2]; beagle dogs, 2.5, 5, 10 mg/kg/day intravenous, 4 weeks) was “no toxic symptoms due to the test substance were observed in all administration groups” and the harmless dose ([2]; beagle dogs, intravenous once a day for 4 weeks) was 10 mg/kg/day. For the same molecule, the “time during which the pH maintained above 6 for 12 hours” value ([3]; intravenous administration of 40 mg, 12 hours) was no less than 50%, the “Mean pH” value ([3]; single intravenous 10 mg) was 2.7 ± 0.1 and the “Median pH” value ([3]; single intravenous 10 mg) was 2.1 ± 0.2. For the same molecule, the “Fraction time pH ≥ 4 (%)” value ([3]; single intravenous 10 mg) was 20.4 ± 2.6%, the “Fraction time pH ≥ 6 (%)” value ([3]; single intravenous 10 mg) was 2.9 ± 2.0% and the “Mean pH” value ([3]; single intravenous 20 mg) was 3.9 ± 0.8. For the same molecule, the “Median pH” value ([3]; single intravenous 20 mg) was 3.8 ± 1.3, the “Fraction time pH ≥ 4 (%)” value ([3]; single intravenous 20 mg) was 46.7% and 46.7 ± 19.0% and the “Fraction time pH ≥ 6 (%)” value ([3]; single intravenous 20 mg) was 16.7 ± 14.6%. The “Mean pH” value ([3]; single intravenous 40 mg) was 4.9 ± 0.3, the “Median pH” value ([3]; single intravenous 40 mg) was 5.4 ± 0.6 and the “Fraction time pH ≥ 4 (%)” value ([3]; single intravenous 40 mg) was 71.0 ± 10.3%. The “Fraction time pH ≥ 6 (%)” value ([3]; single intravenous 40 mg) was 38.3 ± 9.0%, the “Mean pH” value ([3]; single intravenous 80 mg) was 5.9 ± 0.4 and the “Median pH” value ([3]; single intravenous 80 mg) was 6.2 ± 0.3. For the same molecule, the “Fraction time pH ≥ 4 (%)” value ([3]; single intravenous 80 mg) was 92.9 ± 4.8%, the “Fraction time pH ≥ 6 (%)” value ([3]; single intravenous 80 mg) was 59.65% and 59.7 ± 15.7% and the AUC(0-inf) [4, 5] was 1150 ± 279 ng·h/mL. It also gave an AUC(0-t) [4, 5] of 1110 ng·h/mL, a Tmax [4, 5] of 0.25 h and a half-life [4, 5] of 9.53 ± 2.42 h. It also gave a Cmax [4, 5] of 277 ng/mL, an AUC(0-inf) ([4]; oral administration (40 mg)) of 556 ± 299 ng·h/mL and an AUC(0-t) ([4]; oral administration (40 mg)) of 536 ng·h/mL. For the same molecule, the Tmax ([4]; oral administration (40 mg)) was 2.09 h, the half-life ([4]; oral administration (40 mg)) was 9.38 ± 1.6 h and the Cmax ([4]; oral administration (40 mg) tablet) was 49.9 ng/mL.
